In this test the test system is MCP-1 production. Briefly: LPS induced MCP-1 production from human whole blood. The class given is cell-based. Conditions: LPS 200 ng/mL, 18-24 hours, read-out: mean pIC50, LPS induced MCP-1 production (converted). How it is done:
Activation of monocytic cells by agonists of toll-like receptors such as bacterial lipopolysaccharide (LPS) results in production of key inflammatory mediators including MCP-1. Such pathways are widely considered to be central to the pathophysiology of a range of auto-immune and inflammatory disorders.
Blood is collected in a tube containing Sodium heparin (Leo Pharmaceuticals) (10 units of heparin/mL of blood). 96-well compound plates containing 0.5 μL test sample (compound) in 100% DMSO were prepared (two replicates on account of donor variability). 130 μL of whole blood was dispensed into each well of the 96-well compound plates and incubated for 30 min at 37° C., 5% CO2. 10 μL of lipopolysaccharide (from Salmonella typhosa; L6386) made up in PBS (200 ng/mL final assay concentration) was added to each well of the compound plates. The plates were then placed in the humidified primary cell incubator for 18-24 hours at 37° C., 5% CO2. 140 μL of PBS was added to all wells of the compound plates containing blood. The plates were then sealed and centrifuged for 10 mins at 2500 rpm (r.t). […] 150 μL of 2×MSD Read Buffer T (stock 4×MSD Read Buffer T was diluted 50:50 with de-ionised water) was then added to each well and the plates read on the MSD Sector Imager 6000. Concentration response curves for each compound were generated from the data and an IC50 value was calculated.

As for `Cc1cc(-c2nc(C(=O)O)cn2Cc2ccccc2)cn(C)c1=O` [Example 34, 1-benzyl-2-(1,5-dimethyl-6-oxo-1,6-dihydropyridin-3-yl)-1H-imidazole-4-carboxylic acid], the IC50 was more than 20 µM.

Values taken from patent publication US20190202799A1, “IMIDAZOLE DERIVATIVES AND THEIR USE IN THE TREATMENT OF AUTOIMMUNE OR INFLAMMATORY DISEASES OR CANCERS” (GLAXOSMITHKLINE INTELLECTUAL PROPERTY (No.2) LIMITED, priority 2016, published 2019).
